Data as given in publication PMC11593952 (International Journal of Molecular Sciences, 2024).
Read-outs that look alike come from different tables or passages of the source.

Columns and labels:
in vivo [1] = conditions: for exposure in the plasma, fold higher than CBD, L1, and L3: oral
Method: (§1) Animal experiments were conducted in accordance with the National Institutes of Health Laboratory Animal Care and Use Guidelines. Male SPF SD rats from the Animal Center of Anhui Medical University (Hefei, China) were used for the experiment. […] At each time point (0.5, 1, 2, 4, and 8 h) after administration, samples of brain, heart, kidney, liver, lung, and spleen were collected from each rat for tissue distribution study. While for pharmacokinetic study, the plasma samples were gathered from the suborbital vein at 5, 15, 30, and 45 min and 1, 2, 4, 8, and 12 h after oral administration. The maintenance and treatment procedures for experimental animals were approved by the Animal Care and Use Committee of Anhui Medical University (approval number: LLSC20190274). Room temperature was 22 ± 2 °C, using a light/dark (12: 12 h) cycle, the animals were free to consume food and water one day before the experiment.
(§2) An aliquot of 60 μL plasma sample was spiked with 60 µL aqueous ascorbic acid (0.1%) and 20 μL of IS working solution (300 ng/mL). After vortexing for 30 s, 400 µL MTBE was added to plasma sample for liquid–liquid extraction. The mixture was vigorously mixed for 10 min and centrifuged at 12,000 rpm at 4 °C for 5 min; approximately 400 µL of supernatant was transferred to a clean 1.5 mL centrifuge tube and dried under a gentle stream of nitrogen gas. Subsequently, the residue was reconstituted with 100 µL of MeOH/water (7: 3, v/v), vortex-mixed for 2 min, and followed by centrifugation at 12,000 rpm for 20 min. Finally, 20 μL of the supernatant was injected into the UPLC-HRMS system for measurement. The tissue sample (100 mg) was homogenized in normal saline solution (1 mL), 600 μL homogenate sample was spiked with 60 µL aqueous ascorbic acid (0.1%) and 50 μL of the IS working solution (1000 ng/mL), and 1.2 mL MTBE was added for extraction. Then, 1 mL of supernatant was dried and proceeded as plasma sample pretreatment (Figure S1).
(§3) Quantitative analysis using Dionex Ultimate 3000 chromatography hyphenated to Q-Exactive plus Orbitrap mass spectrometer system (Thermo Fisher Scientific, Waltham, MA, USA). The analytes were detected in Full MS/dd-MS^2 mode to choose the parent ion and optimize the retention time; then, we used the parallel reaction monitoring (PRM) mode through positive ionization condition for determination. Xcalibur 4.1 software (Thermo Fisher Scientific) was used for data acquisition and processing.
Chromatographic separation was achieved on a Shimadzu-pack GIST column (50 mm × 2.1 mm, 2 μm, Shimadzu Company, Kyoto, Japan). Binary mobile solvents consisted of water (containing 0.1% FA, v/v) (A) and acetonitrile (B), the gradient program was as follows: 0 min 60% A → 1 min 60% A → 1.5 min 20% A → 7 min 20% A → 7.1 min 60% A → 8.5 min 60% A. The flow rate was set at 0.30 mL/min and the column temperature was 40 °C. The typical source parameters were optimized as follows: spray voltage: 4500 V; capillary temperature: 320 °C; auxiliary gas heater temperature: 200 °C; pressure of sheath gas: 320 kPa; auxiliary gas: 50 kPa.
Phoenix/WinNonlin software (version 6.4; Pharsight, Mountain View, CA, USA) was used to calculate the AUC and other pharmacokinetic parameters in plasma or tissue for each drug in a non-compartmental model.

[2] = cited from earlier work
eeAChE = eeAChE from electric eel, cited from earlier work; for IC50: mean ± SEM, at least three experiments
in vivo [3] = conditions: for Cmax / Kp / selectivity ratio: male, SD, rat, in vivo; for Cmax / Kp: po; for Cmax: 15 mg/kg; for Kp: AUCtissue/AUCplasma; for AUCbrain: brain; for AUCheart: heart; for AUCkidney: kidney; for AUCliver: liver; for AUClung: lung; for AUCspleen: spleen
Method: Drug exposure in tissue is calculated by drug exposure in the plasma and tissue/plasma distribution coefficient (Kp), as shown in Equation (1):Drug exposure in the tissue = drug exposure in the plasma × Kp(1) where drug exposure in the plasma and the tissue can be calculated by the drug concentration vs. time curve, and Kp values can be calculated by Ctissue/Cplasma or AUCtissue/AUCplasma. […] It is worth mentioning that Kp can be evaluated by the ratio of free fraction of drug candidate in plasma vs. in tissues in steady state. Nevertheless, this assessment is based on “free drug hypothesis” theory, which presumes that free drug concentration in tissue is close to that in plasma.
Dose escalation tests are always evaluated during clinical phase I/II trials, and MTD is constantly associated with drug exposure in certain toxicity-related organs. […] To evaluate the balance between efficacy and toxicity for drug candidates, drug tissue selectivity is a crucial parameter and defined as follows in Equation (2), where the sum of Ctissue or AUCtissue is total drug concentration or AUC in different tissues. Drug tissue selectivity = Ctissue/ΣCtissue or AUCtissue/ΣAUCtissue(2)
as §1, §2, §3
Chromatographic separation was achieved on a Shimadzu-pack GIST column (50 mm × 2.1 mm, 2 μm, Shimadzu Company, Kyoto, Japan).

eqBuChE = eqBuChE from horse serum; mean ± SEM, at least three experiments; read-out: IC50 BuChE; cited from earlier work
[4] = rats, single intragastric 15 mg/kg, plasma
[5] = male, SD, rat, in vivo, po, 15 mg/kg

SMILES | CL (in vivo [1]; [4]) [mL/min/kg] | Vd (in vivo [1]; [4]) [L/kg] | IC50 (eeAChE) [nM] | Cmax (in vivo [1]; [5]) [ng/mL] | MRT last (in vivo [1]; [5]) [h] | Tmax (in vivo [1]; [5]) [h] | half-life (in vivo [1]; [5]) [h] | IC50 (eqBuChE) [nM] | AUC (in vivo [1]; [5]) [ng·h/mL] | AUC(0-inf) (in vivo [1]; [5]) [ng·h/mL] | AUC(0-t) (in vivo [1]; [5]) [ng·h/mL] | also measured
C=C(C)[C@@H]1CCC(C)=C[C@H]1c1c(O)cc(CCCCC)cc1O [L1→CBD] | 1718.8 ± 707.3 | 577.46 ± 442.26 | – | – | – | – | – | – | – | – | – | AUC0-T (in vivo [1]; [4]): 165.91 ± 87.56 ng·h/mL; AUC0-∞ (in vivo [1]; [4]): 172.51 ± 84.52 ng·h/mL; Cmax (in vivo [1]; [4]): 94.59 ± 27.06 ng/mL; MRT0-T (in vivo [1]; [4]): 2.21 ± 0.42 h; Tmax (in vivo [1]; [4]): 0.27 ± 0.15 h; t1/2 (in vivo [1]; [4]): 3.43 ± 1.64 h
CCN(C)C(=O)Oc1cccc([C@H](C)N(C)C)c1 [rivastigmine, reference compound] | – | – | – | – | – | – | – | – | – | – | – | bioavailability [2]: 36–40%
C=C(C)C1CCC(C)=CC1c1c(O)cc(CCCCC)cc1OC(=O)N(C)CC (stereo not shown) [Compound L2] | 434.5 ± 74.8 | 99.38 ± 23.95 | 15000 ± 1020 | 127 ± 23.6 | 3.44 ± 0.22 | 1.8 ± 0.45 | 2.64 ± 0.45 | 77 ± 5 | – | – | – | Cmax (in vivo [3]): 56 ng/g; Kp (in vivo [3]; Kp brain, rats): 0.42; Kp (in vivo [3]; Kp heart, rats): 2.63; Kp (in vivo [3]; Kp kidney, rats): 5.51; Kp (in vivo [3]; Kp liver, rats): 5.3; Kp (in vivo [3]; Kp lung, rats): 3.27; Kp (in vivo [3]; Kp spleen, rats): 2.41; selectivity ratio (in vivo [3]; tissue selectivity in the brain, fold higher than L4, AUCtissue/ΣAUCtissue, L2 vs L4): 21; selectivity ratio (in vivo [3]; tissue selectivity in the kidney, fold lower than L4, AUCtissue/ΣAUCtissue, L2 vs L4): 1.2; selectivity ratio (in vivo [3]; tissue selectivity in the liver, fold lower than L4, AUCtissue/ΣAUCtissue, L2 vs L4): 1.8; AUCbrain (in vivo [3]; rats, oral 15 mg/kg): 213.8 ng·h/g; AUCheart (in vivo [3]; rats, oral 15 mg/kg): 1331.9 ng·h/g; AUCkidney (in vivo [3]; rats, oral 15 mg/kg): 2790.2 ng·h/g; AUCliver (in vivo [3]; rats, oral 15 mg/kg): 2684.5 ng·h/g; AUClung (in vivo [3]; rats, oral 15 mg/kg): 1655.0 ng·h/g; AUCspleen (in vivo [3]; rats, oral 15 mg/kg): 1220.9 ng·h/g; exposure in the kidney, fold lower than L4 (in vivo [3]; rats, oral 15 mg/kg, L2 vs L4): 2.8 fold; exposure in the liver, fold lower than L4 (in vivo [3]; rats, oral 15 mg/kg, L2 vs L4): 1.8 fold; brain concentration relative to L4 (in vivo [3]; rats, oral, L2 vs L4): fivefold higher; exposure in the plasma, fold higher than CBD, L1, and L3 (in vivo [1]; rats): > 3 fold
C=C(C)C1CCC(C)=CC1c1c(O)cc(CCCCC)cc1OC(=O)N(C)Cc1ccc(Cl)cc1 (stereo not shown) [Compound L4] | 483.2 ± 100 | 91.52 ± 22.81 | – | 211 ± 30.7 | 2.38 ± 0.21 | 0.8 ± 0.11 | 2.17 ± 0.19 | 5.3 ± 1.2 | – | – | – | Inhibition Rate % at 20 µM, AChE (eeAChE; at 20 µM): 21.4 ± 2.8%; Cmax (in vivo [3]): 19 ng/g; Kp (in vivo [3]; Kp brain, rats): 0.088; Kp (in vivo [3]; Kp heart, rats): 15.1; Kp (in vivo [3]; Kp kidney, rats): 15.7; Kp (in vivo [3]; Kp liver, rats): 10.1; Kp (in vivo [3]; Kp lung, rats): 15.1; Kp (in vivo [3]; Kp spleen, rats): 11.7; AUCbrain (in vivo [3]; rats, oral 15 mg/kg): 43.2 ng·h/g; AUCheart (in vivo [3]; rats, oral 15 mg/kg): 7431.3 ng·h/g; AUCkidney (in vivo [3]; rats, oral 15 mg/kg): 7723.4 ng·h/g; AUCliver (in vivo [3]; rats, oral 15 mg/kg): 4951.2 ng·h/g; AUClung (in vivo [3]; rats, oral 15 mg/kg): 7421.8 ng·h/g; AUCspleen (in vivo [3]; rats, oral 15 mg/kg): 5773.9 ng·h/g; exposure in the plasma, fold higher than CBD, L1, and L3 (in vivo [1]; rats): > 3 fold
C=C(C)C1CCC(C)=CC1c1c(O)cc(CCCCC)cc1OC(=O)N1CCCC1 (stereo not shown) [Compound L3] | 1273 ± 194.7 | 320.94 ± 106.75 | – | 60 ± 8.63 | 2.72 ± 0.6 | 0.95 ± 0.11 | 3.09 ± 1.52 | 390 ± 40 | 182 | 200 ± 32.5 | 182 ± 13.9 | –
C=C(C)C1CCC(C)=CC1c1c(O)cc(CCCCC)cc1OC(=O)NC (stereo not shown) [Compound L1] | 1353 ± 361.8 | 319.94 ± 171.55 | 18900 ± 1110 | 120 ± 15.9 | 2.05 ± 0.47 | 0.22 ± 0.07 | 2.7 ± 1.27 | 128 ± 22 | 191 | 197 ± 58 | 191 ± 58.7 | metabolism to CBD observed in plasma (in vivo [1]; rats, intragastric administration): can be metabolized to produce CBD
CNC(=O)Oc1ccc2c(c1)[C@]1(C)CCN(C)[C@@H]1N2C [physostigmine] | – | – | – | – | – | – | – | – | – | – | – | drug concentration in brains after oral vs intramuscular administration, times less [2]: 350 times; drug concentration in plasma after oral vs intramuscular administration, times less [2]: 200 times; bioavailability ([2]; first-pass metabolism): 2%
C=C(C)[C@@H]1CCC(C)=C[C@H]1c1c(O)cc(CCCCC)cc1O [CBD, Cannabidiol, reference compound] | 1492 ± 107 | 474.16 ± 155.23 | 17100 ± 2430 | 48.9 ± 11 | 2.84 ± 0.23 | 1.2 ± 0.45 | 3.7 ± 1.26 | 670 ± 60 | 158 | 168 ± 11.5 | 158 ± 10.6 | Tmax (reported values) [2]: 0 to 4 h; t1/2 (reported values) [2]: 1.4 to 10.9 h
